Experimental findings from patent publication US9878991B2, “TRPV1 antagonists including dihydroxy substituent and uses thereof” (Purdue Pharma L.P., priority 2007, dated 2018) are described below.

Data set [1] has as its system TRPV1 receptor-mediated pain. Nature of the data set: Capsaicin-induced eye wipe test. The class given is in vivo. The note with it: rat; for eye wipe value: pre-administration value 24. As to the method:
Each experiment uses rats weighing between 200-260 g at the start of the experiment. The rats are group-housed and have free access to food and water at all times, except prior to oral administration of a compound of formula I when food is removed for 16 hours before dosing. A control group acts as a comparison to rats treated with a compound of formula I. The control group is administered the carrier for the compound of formula I. The volume of carrier administered to the control group is the same as the volume of carrier and compound of formula I administered to the test group.
To assess the effect of compounds of formula I on TRPV1 receptor-mediated pain, the capsaicin-induced eye wipe test is used (N. R. Gavva et al., “AMG 9810 [(E)-3-(4-t-Butylphenyl)-N-(2,3-dihydrobenzo[b][1,4]dioxin-6-yl)acrylamide], a Novel Vanilloid Receptor 1 (TRPV1) Antagonist with Antihyperalgesic Properties”, J. Pharmacol. Exp. Ther. 313:474-484 (2005)). The eye wipe test is a reliable high-throughput test of the effect of TRPV1 antagonists. Rats are given a single injection of 1, 3, 10 or 30 mg/kg of either a compound of formula I; 30 mg/kg of a control selected from Celebrex, indomethacin or naproxen; or carrier. At 1, 3 or 5 hours after drug administration, 3 μL of a 100 μM capsaicin solution (in 10% EtOH/PBS) is instilled in one eye of each animal with a pipette. The number of forelimb movements (touching or wiping of the capsaicin-treated eye) are counted during a 2 minute period following instillation of capsaicin into the eye.

A short description of data set [2]: Plasma concentration after administration to an animal. Format: in vivo.

Turning to `O=C(Nc1ccc(C(F)(F)F)cc1)N1CCC(F)(c2ncc([C@H](O)CO)cc2Cl)CC1` [Compound N1, (S)-4-(3-chloro-5-(1,2-dihydroxyethyl)pyridin-2-yl)-4-fluoro-N-(4-(trifluoromethyl)phenyl)piperidine-1-carboxamide], the eye wipe value amounted to 3 in data set [1] (1 hour after administration), 1 in data set [1] (3 hours after administration) and 2 in data set [1] (5 hours after administration). Also, the figures for the “decrease of eye wipes relative to pre-administration value” in data set [1] (3 hours after administration) and in data set [1] (5 hours after administration) were 96% and 92%, respectively.
In the case of `CC(O)(CO)c1cnc(C2=CCN(C(=O)Nc3ccc(C(F)(F)F)cc3)CC2)c(Cl)c1` (stereo not shown) [Compound R6], in data set [2], the “maximum plasma concentration relative to the maximum for compound 200” value came to 5.3 times.
Consider `O=C(Nc1ccc(C(F)(F)F)cc1)N1CC=C(c2ncc([C@H](O)CO)cc2Cl)CC1` [Compound Z1, (S)-3-Chloro-5-(1,2-dihydroxy-ethyl)-3′,6′-dihydro-2′H-[2,4′]bipyridinyl-1′-carboxylic acid (4-trifluoromethyl-phenyl)amide], for which, in data set [2], the “maximum plasma concentration relative to the maximum for compound 200” value is listed as 2.5 times.
